Test results from patent EP4667007A2, “NOVEL ASSOCIATION OF GASTRODIA ELATA AND VITAMIN B” (Futura S.r.l., priority 2024, dated 2025).
Where two headings read alike, the source gives them in different places.

Key:
Caco-2 cells [1] = assay: In vitro intestinal barrier model, absorption with fluorescent tracer (Transwell)
Caco-2 cells [2] = conditions: human
neuregulin 1 (NRG1) = assay: 3D EngNT under PNI conditions, NRG1 ELISA; type: cell-based, rat; conditions: GGF 200 ng/mL, result in words
Procedure: To replicate a strong demyelination before stimulation with the two formulations and the single drugs, the 3D EngNT was pre-treated with 200 ng/mL glial growth factor 2 (GGF) starting on day 14 of maturation. This was necessary since the study needed to replicate the peripheral nerve tissue damage in vitro. Therefore, further studies were conducted to investigate the effects on cell viability and ROS production (Figures 5A-B). […] In contrast, both the individual components and formulations were able not only to re-establish physiological conditions, but also to induce a significant increase in cell viability and a decrease in ROS production (p<0.05). […]
This study was carried out in three different phases; the starting point of the study protocol was intended to study the absorption and transport processes of the novel formulation and individual components through the intestinal barrier using a 3D in vitro model with Caco-2 cells. […] Finally, in the third phase, peripheral nerve damage and demyelination were simulated in vitro, treating 3D EngNT with GGF 200ng/ml, to explore cell survival and mitochondrial activity, oxidative stress and ROS quantification, the inflammatory processes involved in neuropathy, nociceptive pathways for pain control, and the main pathways involved in the processes of myelin sheath protection and neurite formation. […]

SMILES | Absorption Rate (Caco-2 cells [1]; 2h, Gastrodin 25µM, Citicoline 250mM, Acetyl-L-Carnitine 7.5µM, Vit. B group 1mg/mL, Lipoic Acid 50µM) [%] | Absorption Rate (Caco-2 cells [1]; 3h, same concentrations) [%] | Absorption Rate (Caco-2 cells [1]; 4h, same concentrations) [%] | Absorption Rate (Caco-2 cells [1]; 5h, same concentrations) [%] | Absorption Rate (Caco-2 cells [1]; 6h, same concentrations) [%] | Absorption Rate (Caco-2 cells [2]; 3 h) [%] | Absorption Rate (Caco-2 cells [2]; 4 h) [%] | Absorption Rate (Caco-2 cells [2]; 5 h) [%] | Absorption Rate (Caco-2 cells [2]; 6 h) [%] | NRG1 activity (neuregulin 1 (NRG1))
CC(=O)O[C@H](CC(=O)[O-])C[N+](C)(C)C [Acetyl-L-Carnitine, (R)-3-acetyloxy-4-trimethylammonium-butanoate] | 69.49 | 77.35 | 80.65 | 69.90 | 54.16 |  |  |  |  | 
O=C(O)CCCCC1CCSS1 (stereo not shown) [Lipoic acid] |  |  |  |  |  | 49.27 | 53.77 | 51.71 | 41.36 | not able to improve it compared to GGF 200ng/mL
